Common to all, as to assay type: in vivo
Test [1] has as its system Alopecurus myosuroides (ALOMY). The experiment in a line: Post-emergence biological efficacy, glasshouse pot test. Conditions: 312 h, post-emergence, 1,000 g/ha, evaluated after 13 days (100=total damage; 0=no damage), read-out: Percentage damage caused to weed species, ALOMY. As for the experimental part: (§1) Seeds of Alopecurus myosuroides (ALOMY), Setaria faberi (SETFA), Echinochloa crus-galli (ECHCG), Solanum nigrum (SOLNI), Amaranthus retoflexus (AMARE) and Ipomea hederaceae (IPOHE) were sown in standard soil in pots. After cultivation for 8 days under controlled conditions in a glasshouse (at 24/16° C., day/night; 14 hours light; 65% humidity), the plants were sprayed with an aqueous spray solution derived from the formulation of the technical active ingredient in acetone/water (50:50) solution containing 0.5% Tween 20 (polyoxyethelyene sorbitan monolaurate, CAS RN 9005-64-5) to give a final dose of 1000 or 250 g/ha of test compound.
(§2) The test plants were then grown on under controlled conditions in a glasshouse (at 24/16° C., day/night; 14 hours light; 65% humidity) and watered twice daily. After 13 days the test was evaluated (100=total damage to plant; 0=no damage to plant).

The test system of test [2] is Amaranthus retoflexus (AMARE). The test is described as above. Conditions: Amaranthus retroflexus, 312 h; post-emergence, 1,000 g/ha, evaluated after 13 days (100=total damage; 0=no damage); read-out: Percentage damage caused to weed species, AMARE. How it is done:
as §1, §2

The test system of test [3] is Echinochloa crus-galli (ECHCG). Described as above. Particulars: 312 h, post-emergence, 1,000 g/ha, evaluated after 13 days (100=total damage; 0=no damage), read-out: Percentage damage caused to weed species, ECHCG. As for the experimental part:
as §1, §2

Test [4] relates to Ipomea hederaceae (IPOHE). Described as above. Particulars: Ipomoea hederacea, 312 h; post-emergence, 1,000 g/ha, evaluated after 13 days (100=total damage; 0=no damage); read-out: Percentage damage caused to weed species, IPOHE. As for the experimental part:
as §1, §2

For test [5], the system named is Solanum nigrum (SOLNI). The test is described as above. Particulars: 312 h, post-emergence, 1,000 g/ha, evaluated after 13 days (100=total damage; 0=no damage), read-out: Percentage damage caused to weed species, SOLNI. How it is done:
as §1, §2

Test [6] has as its system Setaria faberi (SETFA). The test is described as above. Particulars: 312 h, post-emergence, 1,000 g/ha, evaluated after 13 days (100=total damage; 0=no damage), read-out: Percentage damage caused to weed species, SETFA. How it is done: as §1, §2
For test [7], the system named is Alopecurus myosuroides (ALOMY). The test is described as follows: Pre-emergence biological efficacy, glasshouse pot test. Particulars: 312 h, pre-emergence, 1,000 g/ha, evaluated after 13 days (100=total damage; 0=no damage), read-out: Percentage damage ALOMY. As for the experimental part: as §1, with “one day” for “8 days”
(§3) The test plants were then grown under controlled conditions in the glasshouse (at 24/16° C., day/night; 14 hours light; 65% humidity) and watered twice daily. After 13 days the test was evaluated (100=total damage to plant; 0=no damage to plant).

Test [8] deals with Amaranthus retoflexus (AMARE). The description is as above. Conditions: Amaranthus retroflexus, 312 h; pre-emergence, 1,000 g/ha, evaluated after 13 days (100=total damage; 0=no damage); read-out: Percentage damage AMARE. As for the experimental part: as §1, with “one day” for “8 days”
as §3

Test [9] has as its system Echinochloa crus-galli (ECHCG). The test is described as above. Particulars: 312 h, pre-emergence, 1,000 g/ha, evaluated after 13 days (100=total damage; 0=no damage), read-out: Percentage damage ECHCG. How it is done: as §1, with “one day” for “8 days”
as §3

Test [10] has as its system Ipomea hederaceae (IPOHE). Described as above. Particulars: Ipomoea hederacea, 312 h; pre-emergence, 1,000 g/ha, evaluated after 13 days (100=total damage; 0=no damage); read-out: Percentage damage IPOHE. How it is done:
as §1, with “one day” for “8 days”
as §3

In test [11] the test system is Solanum nigrum (SOLNI). Described as above. Particulars: 312 h, pre-emergence, 1,000 g/ha, evaluated after 13 days (100=total damage; 0=no damage), read-out: Percentage damage SOLNI. How it is done:
as §1, with “one day” for “8 days”
as §3

For test [12], the system named is Setaria faberi (SETFA). The test is described as above. Particulars: 312 h, pre-emergence, 1,000 g/ha, evaluated after 13 days (100=total damage; 0=no damage), read-out: Percentage damage SETFA. How it is done:
as §1, with “one day” for “8 days”
as §3

`COC(=O)c1nc(C2CC2)nc(N[C@@H]2c3ccccc3C[C@@H]2O)c1Cl` [4-37 (1R,2S), 5-Chloro-2-cyclopropyl-4-[(1R, 2S)-2-hydroxy-indan-1-ylamino]-6-methoxycarbonyl-pyrimidine]: the pest or weed control at 1000 g/ha in test [1] was determined as 30%; in test [2] it was 100%; in test [3], 60%; in [4] it was 100%; in the test on Solanum nigrum (SOLNI) [5], 100%; with Setaria faberi (SETFA) [6], 70%. For the same compound, the pest or weed control at 1000 g/ha amounted to 50% in [7]; 100% in [8]; 60% in test [9]; 100% in test [10]; 100% in the test on Solanum nigrum (SOLNI) [11]; 80% in the test on Setaria faberi (SETFA) [12].
Regarding `COC(=O)c1nc(C2CC2)nc(N[C@H]2c3ccccc3C[C@H]2O)c1Cl` [4-37 (1S,2R), 5-Chloro-2-cyclopropyl-4-[(1S, 2R)-2-hydroxy-indan-1-ylamino]-6-methoxycarbonyl-pyrimidine], the pest or weed control at 1000 g/ha in test [1] stood at 50%; in test [2] it was 100%; in test [3], 60%; in test [4] it was 50%; in the test on Solanum nigrum (SOLNI) [5] it was 100%; with Setaria faberi (SETFA) [6], 60%. Besides, the pest or weed control at 1000 g/ha in test [7] is 30%; in test [8], 100%; in [9], 40%; in [10], 80%; in the test with Solanum nigrum (SOLNI) [11], 90%; in the test with Setaria faberi (SETFA) [12], 60%.
As for `COC(=O)c1nc(C2CC2)nc(N[C@H]2COC[C@H]2O)c1Cl` [4-38 (S,S), 5-Chloro-2-cyclopropyl-4-[(3S, 4S)-4-hydroxytetra-hydrofuran-3-ylamino]-6-methoxycarbonyl-pyrimidine], the pest or weed control at 1000 g/ha in test [1] stood at 30%; in test [2] it was 100%; in test [3], 10%; in test [4] it was 30%; in the test on Solanum nigrum (SOLNI) [5] it was 80%; in the test on Setaria faberi (SETFA) [6], 60%. The pest or weed control at 1000 g/ha in test [7] was 20%; in [8], 100%; in [9], 30%; in test [10], 70%; with Solanum nigrum (SOLNI) [11], 80%; with Setaria faberi (SETFA) [12], 30%.
In the case of `COC(=O)c1nc(C2CC2)nc(N[C@@H](C)C2CCCCC2)c1Cl` [4-173 (S), 5-Chloro-4-[(1S)-1-(cyclohexyl)ethyl-amino]-2-cyclopropyl-6-methoxycarbonyl-pyrimidine], the pest or weed control at 1000 g/ha in test [1] was 0%; in test [2] it was 20%; in test [3], 0%; in test [4], 40%; in the test on Solanum nigrum (SOLNI) [5] it was 20%; in the test with Setaria faberi (SETFA) [6], 0%. Further, the pest or weed control at 1000 g/ha in test [7] worked out at 0%; in test [8] it was 20%; in test [9] it was 0%; in [10], 0%; in the test on Solanum nigrum (SOLNI) [11], 0%; in the test on Setaria faberi (SETFA) [12], 0%.

Source of the values: US20110086759A1, “CHEMICAL COMPOUNDS” (SYNGENTA CROP PROTECTION, INC., priority 2007, published 2011).
